Literature values as cited in patent US10154980B2, “Anti-inflammatory omega-3 synergistic combinations” (LYCORED LTD., priority 2013, dated 2018).

Tested on: NO production
Conditions: background, literature references

| SMILES | inhibit NO production |
| --- | --- |
| CC1=C[C@H](O)CC(C)(C)[C@H]1/C=C/C(C)=C/C=C/C(C)=C/C=C/C=C(C)/C=C/C=C(C)/C=C/C1=C(C)C[C@@H](O)CC1(C)C [lutein, (3R,3′R, 6′R)-beta,epsilon-carotene-3,3′-diol] | shown to inhibit NO production |
| CC(C)=CCC/C(C)=C/C=C/C(C)=C/C=C/C(C)=C/C=C/C=C(C)/C=C/C=C(C)/C=C/C=C(\C)CCC=C(C)C [lycopene] | shown to inhibit NO production |
